Data: patent publication US20240336588A1, “COMPOSITIONS AND METHODS FOR ANTIOXIDANT AND ANTI-INFLAMMATORY THERAPEUTICS” (AVANTI BIOSCIENCES INC., priority 2021, published 2024)

Tests used:
[1] = system: MOG35-55-induced chronic progressive Experimental Autoimmune Encephalomyelitis (EAE); assay: MOG35-55-induced murine model of chronic progressive EAE; type: in vivo, mice; conditions: reference compound; FIG. 1
Description: Compound 40 of Table 1 was examined for application in neurodegenerative disorders using a MOG35-55-induced murine model of chronic progressive Experimental Autoimmune Encephalomyelitis (EAE), an inflammation model predictive for multiple sclerosis (MS).
Without being bound by theory, the present inventors note that compound 40 could have a peripheral immunomodulation effect and an overall neuroprotective effect, which could have advantageous implications for the treatment of neurodegenerative disorders like Alzheimer's disease and Multiple Sclerosis.

[2] = target: DYRK1A (HT-497, 6×His tagged rat truncated DYRK1A isoform X1 residues 1-497) (Rattus norvegicus (Rat), UniProt Q63470); assay: DYRK1A ELISA assay (HT-PRD phosphorylation); type: biochemical; conditions: 100 µM ATP, 5 ng HT-497, 30 min at 30° C.
Description: Compounds of Table 1, above, were examined in vitro for activity against DYRK1A, DYRK1B, DYRK2 via an ELISA assay.
DYRK1A assay. […] After blocking, wells were washed extensively with dilution buffer before subjecting to phosphorylation. […] At the end point, wells were washed with ˜350 μl dilution buffer three times to terminate the reaction. […] Each point was run in quadruplicate with DMSO present in all assays at 0.2% final concentration. […] HT-PRD phosphorylation was subsequently determined by the sandwich antibody staining protocol, first with 100 μl mouse mAb 3D3 specific for detecting DYRK1A-phosphorylated PRD (60 min at room temperature) then with 100 μl alkaline phosphatase (AP)-linked anti-mouse secondary antibody (60 min at room temperature), followed by colorimetric reaction with 100 μl PNPP solution (PNPP substrate tablet, Thermo Fisher). […] The readings were then recorded for subsequent IC50 calculation. The DYRK1A assay protocol can also support DYRK1B and DYRK2 phosphorylation reactions in the enzyme concentration-dependent manner; therefore, the method was adapted for measuring the activity of candidate compounds against DYRK1B and DYRK2. For DYRK2, the reactions were performed as described above with 6 ng HT-DYRK2 (6×His tagged full-length human DYRK2 isoform 1). For DYRK1B, the assays were also similarly conducted but with 70 ng GST-DYRK1B (glutathione S-transferase tagged full length human DYRK1B isoform p65) and an extended kinase reaction time of 60 min.
Dilution factors for both mAb 3D3 and secondary antibody were pre-determined for each batch of antibody to ensure that neither antibody was limiting in the assay.
Data transformation, calculation, plotting, curve fitting, and IC 50 calculation were performed in KaleidaGraph (http://www.synergy.com/wordpress_650164087; Mac version 4.1). Data was corrected for background (readings from wells with only PNPP) before subsequent manipulations. […] The resulting residual activity was then plotted against its corresponding inhibitor concentrations in semi-log graph and the plot was fit to the sigmoidal equation, y=a+(b−a)/(1+(x/c)^d), for IC50 calculation.

| Structure (SMILES) | IC50 [2] [µM] | activity in the EAE model (reference compounds) [1] |
| --- | --- | --- |
| O=C(O[C@@H]1Cc2c(O)cc(O)cc2O[C@@H]1c1cc(O)c(O)c(O)c1)c1cc(O)c(O)c(O)c1 [Compound 3, (2R,3R)-5,7-dihydroxy-2-(3,4,5-trihydroxyphenyl)chroman-3-yl 3,4,5-trihydroxybenzoate, reference compound] | – | no significant activity |
| O=C(O[C@@H]1Cc2ccccc2O[C@H]1c1cc(O)c(O)c(O)c1)c1cc(O)c(O)c(O)c1 [Compound 39, (2S,3R)-2-(3,4,5-trihydroxyphenyl)chroman-3-yl 3,4,5-trihydroxybenzoate] | > 0.1 | – |
| O=C(O[C@@H]1Cc2c(O)cc(O)cc2O[C@H]1c1cc(O)c(O)c(O)c1)[C@H]1CC[C@@H](O)CC1 [Compound 43, (2S,3R)-5,7-dihydroxy-2-(3,4,5-trihydroxyphenyl)chroman-3-yl (1s,4S)-4-hydroxycyclohexane-1-carboxylate] | > 1 | – |
| O=C(O[C@@H]1Cc2c(O)cc(O)cc2O[C@H]1c1cc(O)c(O)c(O)c1)[C@H]1CC[C@H](O)CC1 [Compound 44, (2S,3R)-5,7-dihydroxy-2-(3,4,5-trihydroxyphenyl)chroman-3-yl (1r,4R)-4-hydroxycyclohexane-1-carboxylate] | > 1 | – |
| O=C(O[C@@H]1Cc2c(O)cc(O)cc2O[C@H]1c1cc(O)c(O)cc1F)c1cc(O)c(O)c(O)c1 [Compound 45, (2S,3R)-2-(2-fluoro-4,5-dihydroxyphenyl)-5,7-dihydroxychroman-3-yl 3,4,5-trihydroxybenzoate] | > 0.1 | – |
| Cc1cc(O)c(O)cc1[C@@H]1Oc2cc(O)cc(O)c2C[C@H]1OC(=O)c1cc(O)c(O)c(O)c1F [Compound 52, (2S,3R)-2-(4,5-dihydroxy-2-methylphenyl)-5,7-dihydroxychroman-3-yl 2-fluoro-3,4,5-trihydroxybenzoate] | > 0.1 | – |
| O=C(O[C@@H]1Cc2ccccc2C[C@H]1c1cc(O)c(O)c(O)c1)c1cc(O)c(O)c(O)c1 [Compound 53, (2R,3S)-3-(3,4,5-trihydroxyphenyl)-1,2,3,4-tetrahydronaphthalen-2-yl 3,4,5-trihydroxybenzoate] | > 1 | – |
| CC(C)Oc1c(O)c(O)c(F)c(C(=O)O[C@@H]2Cc3c(O)cc(O)cc3O[C@H]2c2cc(O)c(O)c(O)c2)c1F [Compound 61, (2S,3R)-5,7-dihydroxy-2-(3,4,5-trihydroxyphenyl)chroman-3-yl 2,6-difluoro-3,4-dihydroxy-5-isopropoxybenzoate] | > 0.1 | – |
| COc1c(O)c(O)c(F)c(C(=O)O[C@@H]2Cc3c(O)cc(O)cc3O[C@H]2c2ccc(O)c(O)c2)c1F [Compound 64, (2S,3R)-2-(3,4-dihydroxyphenyl)-5,7-dihydroxychroman-3-yl 2,6-difluoro-3,4-dihydroxy-5-methoxybenzoate] | > 0.1 | – |
| CCC(=O)Oc1cc(O)c2c(c1)O[C@H](c1cc(O)c(O)c(O)c1)[C@H](OC(=O)c1cc(O)c(O)c(O)c1)C2 [Compound 69, (2R,3R)-5-hydroxy-7-(propionyloxy)-2-(3,4,5-trihydroxyphenyl)chroman-3-yl 3,4,5-trihydroxybenzoate] | > 0.1 | – |
| CCNC(=O)Oc1cc(O)c2c(c1)O[C@H](c1cc(O)c(O)c(O)c1)[C@H](OC(=O)c1cc(O)c(O)c(O)c1)C2 [Compound 70, (2R,3R)-7-((ethylcarbamoyl)oxy)-5-hydroxy-2-(3,4,5-trihydroxyphenyl)chroman-3-yl 3,4,5-trihydroxybenzoate] | > 0.1 | – |
| CCCCCC(=O)Oc1cc(O)c2c(c1)O[C@H](c1cc(O)c(O)c(O)c1)[C@H](OC(=O)c1cc(O)c(O)c(O)c1)C2 [Compound 71, (2R,3R)-7-(hexanoyloxy)-5-hydroxy-2-(3,4,5-trihydroxyphenyl)chroman-3-yl 3,4,5-trihydroxybenzoate] | > 0.1 | – |
| CCNC(=O)Oc1c(O)cc([C@H]2Oc3cc(O)cc(O)c3C[C@H]2OC(=O)c2cc(O)c(O)c(O)c2)cc1O [Compound 72, (2R,3R)-2-(4-((ethylcarbamoyl)oxy)-3,5-dihydroxyphenyl)-5,7-dihydroxychroman-3-yl 3,4,5-trihydroxybenzoate] | > 0.1 | – |
| CCCCCCCCc1ccc(CCC(N)(CO)CO)cc1 [FTY720, Fingolimod, reference compound] | – | reversal of the disease |

The next lines start with results.

| IC50 [2] [µM] | Structure (SMILES) | activity in the EAE model (reference compounds) [1] |
| --- | --- | --- |
| > 0.1 | O=C(O[C@@H]1Cc2c(O)cc(O)cc2O[C@H]1c1cc(O)c(O)c(O)c1)c1ccc(O)c(O)c1O [Compound 38, (2S,3R)-5,7-dihydroxy-2-(3,4,5-trihydroxyphenyl)chroman-3-yl 2,3,4-trihydroxybenzoate] | – |
| > 0.1 | O=C(O[C@@H]1Cc2c(O)cc(O)cc2O[C@H]1c1cc(O)c(O)c(O)c1)c1cc(O)c(O)cc1F [Compound 41, (2S,3R)-5,7-dihydroxy-2-(3,4,5-trihydroxyphenyl)chroman-3-yl 2-fluoro-4,5-dihydroxybenzoate] | – |
| > 0.1 | O=C(O[C@@H]1Cc2c(O)cc(O)cc2O[C@H]1c1cc(O)c(O)c(O)c1)c1cc(O)c(O)cc1O [Compound 42, (2S,3R)-5,7-dihydroxy-2-(3,4,5-trihydroxyphenyl)chroman-3-yl 2,4,5-trihydroxybenzoate] | – |
| < 0.1 | O=C(O[C@@H]1Cc2c(O)cc(O)cc2O[C@H]1c1cc(O)c(O)c(O)c1F)c1cc(O)c(O)c(O)c1 [Compound 46, (2S,3R)-2-(2-fluoro-3,4,5-trihydroxyphenyl)-5,7-dihydroxychroman-3-yl 3,4,5-trihydroxybenzoate] | – |
| < 0.1 | O=C(O[C@@H]1Cc2c(O)cc(O)cc2O[C@H]1c1cc(O)c(O)c(O)c1F)c1cc(O)c(O)c(O)c1F [Compound 47, (2S,3R)-2-(2-fluoro-3,4,5-trihydroxyphenyl)-5,7-dihydroxychroman-3-yl 2-fluoro-3,4,5-trihydroxybenzoate] | – |
| > 0.1 | O=C(O[C@@H]1Cc2c(O)cc(O)cc2O[C@H]1c1cc(O)c(O)cc1F)c1cc(O)c(O)c(O)c1F [Compound 48, (2S,3R)-2-(2-fluoro-4,5-dihydroxyphenyl)-5,7-dihydroxychroman-3-yl 2-fluoro-3,4,5-trihydroxybenzoate] | – |
| > 0.1 | COc1cc([C@@H]2Oc3cc(O)cc(O)c3C[C@H]2OC(=O)c2cc(O)c(O)c(O)c2F)cc(O)c1O [Compound 49, (2S,3R)-2-(3,4-dihydroxy-5-methoxyphenyl)-5,7-dihydroxychroman-3-yl 2-fluoro-3,4,5-trihydroxybenzoate] | – |
| > 0.1 | COc1c(O)c(O)cc(C(=O)O[C@@H]2Cc3c(O)cc(O)cc3O[C@H]2c2cc(O)c(O)c(O)c2)c1F [Compound 50, (2S,3R)-5,7-dihydroxy-2-(3,4,5-trihydroxyphenyl)chroman-3-yl 2-fluoro-4,5-dihydroxy-3-methoxybenzoate] | – |
| > 0.1 | COc1c(O)c(O)c(F)c(C(=O)O[C@@H]2Cc3c(O)cc(O)cc3O[C@H]2c2cc(O)c(O)c(O)c2)c1F [Compound 59, (2S,3R)-5,7-dihydroxy-2-(3,4,5-trihydroxyphenyl)chroman-3-yl 2,6-difluoro-3,4-dihydroxy-5-methoxybenzoate] | – |
| > 0.1 | O=C(O[C@@H]1Cc2c(O)cc(O)cc2O[C@H]1c1cc(O)c(O)c(O)c1)c1cc(O)c(O)c(OC(F)F)c1 [Compound 60, (2S,3R)-5,7-dihydroxy-2-(3,4,5-trihydroxyphenyl)chroman-3-yl 3-(difluoromethoxy)-4,5-dihydroxybenzoate] | – |
| > 0.1 | O=C(O[C@@H]1Cc2c(O)cc(O)cc2O[C@H]1c1cc(O)c(O)c(O)c1)c1cc(O)c(O)cc1C(F)(F)F [Compound 62, (2S,3R)-5,7-dihydroxy-2-(3,4,5-trihydroxyphenyl)chroman-3-yl 4,5-dihydroxy-2-(trifluoromethyl)benzoate] | – |
| > 0.1 | Cc1c(C(=O)O[C@@H]2Cc3c(O)cc(O)cc3O[C@H]2c2cc(O)c(O)c(O)c2)ccc(O)c1O [Compound 63, (2S,3R)-5,7-dihydroxy-2-(3,4,5-trihydroxyphenyl)chroman-3-yl 3,4-dihydroxy-2-methylbenzoate] | – |
| > 0.1 | O=C(O[C@@H]1Cc2c(O)cc(O)cc2O[C@H]1c1cc(O)c(O)c(O)c1)c1cc(OC(F)F)c(O)c(O)c1F [Compound 65, (2S,3R)-5,7-dihydroxy-2-(3,4,5-trihydroxyphenyl)chroman-3-yl 5-(difluoromethoxy)-2-fluoro-3,4-dihydroxybenzoate] | – |
| > 0.1 | O=C(O[C@@H]1Cc2c(O)cc(O)cc2O[C@H]1c1cc(O)c(O)c(O)c1)c1cc(O)c(O)c(F)c1 [Compound 66, (2S,3R)-5,7-dihydroxy-2-(3,4,5-trihydroxyphenyl)chroman-3-yl 3-fluoro-4,5-dihydroxybenzoate] | – |
